Experimental data from PMC6941756 (Biochemistry, 2019).

Target: HIV-1 protease KY variant (Human immunodeficiency virus 1, UniProt P12497, L577V/L578M/Q495K, form not given)

CC(C)CN(C[C@@H](O)[C@H](Cc1ccccc1)NC(=O)O[C@H]1CO[C@H]2OCC[C@H]21)S(=O)(=O)c1ccc(N)cc1 [DRV, darunavir]
times more tightly bound than expected under additivity of binding free energies (KY variant protease): about 3.5 times
increase in Ki compared with the NL4–3 WT protease (all of the KY variants vs NL4–3 WT): ≥ 500 fold
